Experimental data reported in patent publication US11021457B2, “Class of isoindolone-imide ring-1,3-dione-2-ene compounds, composition and use thereof” (WIGEN BIOMEDICINE TECHNOLOGY (SHANGHAI) CO., LTD., priority 2017, dated 2021).

Each compound was assayed on K562 (assay: Inhibition of tumor cell proliferation, CellTiter-Glo, K562). Settings: Homo sapiens, K562; compound concentration 50 μM, 72 hours; read-out: Inhibitory activity against proliferation (cell survival rate) K562.
Format: cell-based
Protocol: (§1) For various cell lines, the corresponding complete medium was used, and culture was carried out in an incubator at 37° C. with 5% CO2. The cells were counted, and inoculated into a 96-well plate at 2000-10000 cells/100 μl per well according to the cell volume and growth rate. The suspended cells were treated immediately, and the adherent cells were treated after adherence. The CellTiter-Glo method was used to detect the changes in cell viability 72 hours after the administration, and the cell survival rate at different concentrations was calculated by a formula: Survival rate (%)=(RLU of treatment well−RLU of blank well)/(RLU of control well−RLU of blank well)×100.
(§2) Method for expressing the inhibitory activity of the compounds against the proliferation of tumor cells: Evaluation was made based on the cell survival rate at a compound concentration of 50 μM. 60≤survival rate (%)<90 is considered to have low inhibitory activity against the proliferation of tumor cells (+); 30<survival rate (%)≤60 is considered to have moderate inhibitory activity against the proliferation of tumor cells (++); and survival rate (%)≤30 is considered to have high inhibitory activity against the proliferation of tumor cells (+++).

SMILES	cell survival rate (%) at 50 µM
O=C1CCC(N2Cc3c(NC=C4C(=O)CC(c5ccccc5)C(F)C4=O)cccc3C2=O)C(=O)N1 (stereo not drawn) [Compound 28]	≤ 30%

Same assay, conditions: compound concentration 50 μM, 72 hours

SMILES	Inhibitory activity against proliferation (cell survival rate) K562
O=C1CCC(N2C(=O)c3cccc(NC=C4C(=O)CC(c5ccccc5)CC4=O)c3C2=O)C(=O)N1 (stereo not drawn) [Compound 2]	+++ (survival rate (%)≤30)
Cc1ccccc1C1CC(=O)C(=CNc2cccc3c2CN(C2CCC(=O)NC2=O)C3=O)C(=O)C1 (stereo not drawn) [Compound 4]	++ (30<survival rate (%)≤60)
O=C1CCC(N2Cc3cc(NC=C4C(=O)CC(c5ccccc5)CC4=O)ccc3C2=O)C(=O)N1 (stereo not drawn) [Compound 8]	++ (30<survival rate (%)≤60)
O=C1CCC(N2C(=O)c3ccc(NC=C4C(=O)CC(c5ccccc5)CC4=O)cc3C2=O)C(=O)N1 (stereo not drawn) [Compound 9]	++ (30<survival rate (%)≤60)
O=C1CCC(N2Cc3ccc(NC=C4C(=O)CC(c5ccccc5)CC4=O)cc3C2=O)C(=O)N1 (stereo not drawn) [Compound 10]	++ (30<survival rate (%)≤60)
O=C1CCC(N2Cc3c(NC=C4C(=O)CC(c5ccc(OC(F)(F)F)cc5)CC4=O)cccc3C2=O)C(=O)N1 (stereo not drawn) [Compound 22]	+ (60≤survival rate (%)<90)
O=C1CCC(N2Cc3c(NC=C4C(=O)CC(c5ccccc5C(F)(F)F)CC4=O)cccc3C2=O)C(=O)N1 (stereo not drawn) [Compound 23]	++ (30<survival rate (%)≤60)

What follows are compounds tested on SU-DHL6 (assay: Inhibition of tumor cell proliferation, CellTiter-Glo, SU-DHL6). Settings: Homo sapiens, SU-DHL-6; compound concentration 50 μM, 72 hours; read-out: Inhibitory activity against proliferation (cell survival rate) SU-DHL6.
Format: cell-based
Protocol: as §1, §2

SMILES	cell survival rate (% of control) at 50 µM
O=C1CCC(N2Cc3c(NC=C4C(=O)CC(c5ccccc5)C(F)C4=O)cccc3C2=O)C(=O)N1 (stereo not drawn) [Compound 28]	≤ 30%

Same assay, conditions: compound concentration 50 μM, 72 hours

SMILES	Inhibitory activity against proliferation (cell survival rate) SU-DHL6
O=C1CCC(N2C(=O)c3cccc(NC=C4C(=O)CC(c5ccccc5)CC4=O)c3C2=O)C(=O)N1 (stereo not drawn) [Compound 2]	+++ (survival rate (%)≤30)
Cc1ccccc1C1CC(=O)C(=CNc2cccc3c2CN(C2CCC(=O)NC2=O)C3=O)C(=O)C1 (stereo not drawn) [Compound 4]	+ (60≤survival rate (%)<90)
O=C1CCC(N2Cc3cc(NC=C4C(=O)CC(c5ccccc5)CC4=O)ccc3C2=O)C(=O)N1 (stereo not drawn) [Compound 8]	+ (60≤survival rate (%)<90)
O=C1CCC(N2C(=O)c3ccc(NC=C4C(=O)CC(c5ccccc5)CC4=O)cc3C2=O)C(=O)N1 (stereo not drawn) [Compound 9]	+ (60≤survival rate (%)<90)
O=C1CCC(N2Cc3ccc(NC=C4C(=O)CC(c5ccccc5)CC4=O)cc3C2=O)C(=O)N1 (stereo not drawn) [Compound 10]	+ (60≤survival rate (%)<90)
O=C1CCC(N2Cc3c(NC=C4C(=O)CC(c5ccc(OC(F)(F)F)cc5)CC4=O)cccc3C2=O)C(=O)N1 (stereo not drawn) [Compound 22]	+ (60≤survival rate (%)<90)
O=C1CCC(N2Cc3c(NC=C4C(=O)CC(c5ccccc5C(F)(F)F)CC4=O)cccc3C2=O)C(=O)N1 (stereo not drawn) [Compound 23]	+++ (survival rate (%)≤30)

The compounds below were run on A549 (assay: Inhibition of tumor cell proliferation, CellTiter-Glo, A549). Settings: Homo sapiens, A549; compound concentration 50 μM, 72 hours; read-out: Inhibitory activity against proliferation (cell survival rate) A549.
Format: cell-based
Protocol: as §1, §2

SMILES	cell survival rate (% of control) at 50 µM
O=C1CCC(N2Cc3c(NC=C4C(=O)CC(c5ccccc5)C(F)C4=O)cccc3C2=O)C(=O)N1 (stereo not drawn) [Compound 28]	≤ 30%

Same assay, conditions: compound concentration 50 μM, 72 hours

SMILES	Inhibitory activity against proliferation (cell survival rate) A549
O=C1CCC(N2C(=O)c3cccc(NC=C4C(=O)CC(c5ccccc5)CC4=O)c3C2=O)C(=O)N1 (stereo not drawn) [Compound 2]	++ (30<survival rate (%)≤60)
Cc1ccccc1C1CC(=O)C(=CNc2cccc3c2CN(C2CCC(=O)NC2=O)C3=O)C(=O)C1 (stereo not drawn) [Compound 4]	+ (60≤survival rate (%)<90)
O=C1CCC(N2Cc3cc(NC=C4C(=O)CC(c5ccccc5)CC4=O)ccc3C2=O)C(=O)N1 (stereo not drawn) [Compound 8]	++ (30<survival rate (%)≤60)
O=C1CCC(N2C(=O)c3ccc(NC=C4C(=O)CC(c5ccccc5)CC4=O)cc3C2=O)C(=O)N1 (stereo not drawn) [Compound 9]	++ (30<survival rate (%)≤60)
O=C1CCC(N2Cc3ccc(NC=C4C(=O)CC(c5ccccc5)CC4=O)cc3C2=O)C(=O)N1 (stereo not drawn) [Compound 10]	+ (60≤survival rate (%)<90)
O=C1CCC(N2Cc3c(NC=C4C(=O)CC(c5ccc(OC(F)(F)F)cc5)CC4=O)cccc3C2=O)C(=O)N1 (stereo not drawn) [Compound 22]	+ (60≤survival rate (%)<90)
O=C1CCC(N2Cc3c(NC=C4C(=O)CC(c5ccccc5C(F)(F)F)CC4=O)cccc3C2=O)C(=O)N1 (stereo not drawn) [Compound 23]	+++ (survival rate (%)≤30)

Each compound was assayed on MDA-MB-453 (assay: Inhibition of tumor cell proliferation, CellTiter-Glo, MDA-MB-453). Settings: Homo sapiens, MDA-MB-453; compound concentration 50 μM, 72 hours; read-out: Inhibitory activity against proliferation (cell survival rate) MDA-MB-453.
Format: cell-based
Protocol: as §1, §2

SMILES	cell survival rate (%) at 50 µM
O=C1CCC(N2Cc3c(NC=C4C(=O)CC(c5ccccc5)C(F)C4=O)cccc3C2=O)C(=O)N1 (stereo not drawn) [Compound 28]	≤ 30%

Same assay, conditions: compound concentration 50 μM, 72 hours

SMILES	Inhibitory activity against proliferation (cell survival rate) MDA-MB-453
O=C1CCC(N2C(=O)c3cccc(NC=C4C(=O)CC(c5ccccc5)CC4=O)c3C2=O)C(=O)N1 (stereo not drawn) [Compound 2]	+ (60≤survival rate (%)<90)
Cc1ccccc1C1CC(=O)C(=CNc2cccc3c2CN(C2CCC(=O)NC2=O)C3=O)C(=O)C1 (stereo not drawn) [Compound 4]	+ (60≤survival rate (%)<90)
O=C1CCC(N2Cc3cc(NC=C4C(=O)CC(c5ccccc5)CC4=O)ccc3C2=O)C(=O)N1 (stereo not drawn) [Compound 8]	+ (60≤survival rate (%)<90)
O=C1CCC(N2C(=O)c3ccc(NC=C4C(=O)CC(c5ccccc5)CC4=O)cc3C2=O)C(=O)N1 (stereo not drawn) [Compound 9]	+ (60≤survival rate (%)<90)
O=C1CCC(N2Cc3ccc(NC=C4C(=O)CC(c5ccccc5)CC4=O)cc3C2=O)C(=O)N1 (stereo not drawn) [Compound 10]	+ (60≤survival rate (%)<90)
O=C1CCC(N2Cc3c(NC=C4C(=O)CC(c5ccc(OC(F)(F)F)cc5)CC4=O)cccc3C2=O)C(=O)N1 (stereo not drawn) [Compound 22]	++ (30<survival rate (%)≤60)
O=C1CCC(N2Cc3c(NC=C4C(=O)CC(c5ccccc5C(F)(F)F)CC4=O)cccc3C2=O)C(=O)N1 (stereo not drawn) [Compound 23]	++ (30<survival rate (%)≤60)

Each compound was assayed on BxPC-3 (assay: Inhibition of tumor cell proliferation, CellTiter-Glo, BxPC-3). Settings: Homo sapiens, BXPC-3; compound concentration 50 μM, 72 hours; read-out: Inhibitory activity against proliferation (cell survival rate) BxPC-3.
Format: cell-based
Protocol: as §1, §2

SMILES	cell survival rate (%) at 50 µM
O=C1CCC(N2Cc3c(NC=C4C(=O)CC(c5ccccc5)C(F)C4=O)cccc3C2=O)C(=O)N1 (stereo not drawn) [Compound 28]	30 to 60%

Same assay, conditions: compound concentration 50 μM, 72 hours

SMILES	Inhibitory activity against proliferation (cell survival rate) BxPC-3
O=C1CCC(N2C(=O)c3cccc(NC=C4C(=O)CC(c5ccccc5)CC4=O)c3C2=O)C(=O)N1 (stereo not drawn) [Compound 2]	+ (60≤survival rate (%)<90)
Cc1ccccc1C1CC(=O)C(=CNc2cccc3c2CN(C2CCC(=O)NC2=O)C3=O)C(=O)C1 (stereo not drawn) [Compound 4]	+ (60≤survival rate (%)<90)
O=C1CCC(N2Cc3cc(NC=C4C(=O)CC(c5ccccc5)CC4=O)ccc3C2=O)C(=O)N1 (stereo not drawn) [Compound 8]	++ (30<survival rate (%)≤60)
O=C1CCC(N2C(=O)c3ccc(NC=C4C(=O)CC(c5ccccc5)CC4=O)cc3C2=O)C(=O)N1 (stereo not drawn) [Compound 9]	++ (30<survival rate (%)≤60)
O=C1CCC(N2Cc3ccc(NC=C4C(=O)CC(c5ccccc5)CC4=O)cc3C2=O)C(=O)N1 (stereo not drawn) [Compound 10]	++ (30<survival rate (%)≤60)
O=C1CCC(N2Cc3c(NC=C4C(=O)CC(c5ccc(OC(F)(F)F)cc5)CC4=O)cccc3C2=O)C(=O)N1 (stereo not drawn) [Compound 22]	++ (30<survival rate (%)≤60)
O=C1CCC(N2Cc3c(NC=C4C(=O)CC(c5ccccc5C(F)(F)F)CC4=O)cccc3C2=O)C(=O)N1 (stereo not drawn) [Compound 23]	++ (30<survival rate (%)≤60)

What follows are compounds tested on RPMI-8226 (assay: Inhibition of tumor cell proliferation, CellTiter-Glo, RPMI-8226). Settings: Homo sapiens, RPMI-8226; compound concentration 50 μM, 72 hours; read-out: Inhibitory activity against proliferation (cell survival rate) RPMI-8226.
Format: cell-based
Protocol: as §1, §2

SMILES	cell survival rate (% of control) at 50 µM
O=C1CCC(N2Cc3c(NC=C4C(=O)CC(c5ccccc5)C(F)C4=O)cccc3C2=O)C(=O)N1 (stereo not drawn) [Compound 28]	≤ 30%

Same assay, conditions: compound concentration 50 μM, 72 hours

SMILES	Inhibitory activity against proliferation (cell survival rate) RPMI-8226
O=C1CCC(N2C(=O)c3cccc(NC=C4C(=O)CC(c5ccccc5)CC4=O)c3C2=O)C(=O)N1 (stereo not drawn) [Compound 2]	++ (30<survival rate (%)≤60)
Cc1ccccc1C1CC(=O)C(=CNc2cccc3c2CN(C2CCC(=O)NC2=O)C3=O)C(=O)C1 (stereo not drawn) [Compound 4]	+++ (survival rate (%)≤30)
O=C1CCC(N2Cc3cc(NC=C4C(=O)CC(c5ccccc5)CC4=O)ccc3C2=O)C(=O)N1 (stereo not drawn) [Compound 8]	++ (30<survival rate (%)≤60)
O=C1CCC(N2C(=O)c3ccc(NC=C4C(=O)CC(c5ccccc5)CC4=O)cc3C2=O)C(=O)N1 (stereo not drawn) [Compound 9]	++ (30<survival rate (%)≤60)
O=C1CCC(N2Cc3ccc(NC=C4C(=O)CC(c5ccccc5)CC4=O)cc3C2=O)C(=O)N1 (stereo not drawn) [Compound 10]	++ (30<survival rate (%)≤60)
O=C1CCC(N2Cc3c(NC=C4C(=O)CC(c5ccc(OC(F)(F)F)cc5)CC4=O)cccc3C2=O)C(=O)N1 (stereo not drawn) [Compound 22]	+ (60≤survival rate (%)<90)
O=C1CCC(N2Cc3c(NC=C4C(=O)CC(c5ccccc5C(F)(F)F)CC4=O)cccc3C2=O)C(=O)N1 (stereo not drawn) [Compound 23]	+++ (survival rate (%)≤30)
